Series [1] relates to E0771-HER2 tumour. Description: AMD-mediated in vivo disassembly of SiTE-Cy7 (Cy7 signal in tumour). On the set-up: species or system mouse. Particulars: 18 h post-SiTE-Cy7, read 6 h later. The procedure: FIGS. 19A-19C: SiTE was labeled with Cy7 dye (Cy7 was labeled on CD3 Fab) and was i.v. injected to tumour-bearing mice at 0 h. Then. PBS. […] 6 h later, mice were euthanized and the Cy7 signal in different organs and tumour was measured using IVIS. […] FIG. 19E: quantification of the fluorescence in tumour tissues in a-c. Data was shown as mean±SD (n=3), statistical differences were analyzed using two-tailed unpaired Student's t-test. […] SiTE-Cy7 was i.v. infused into tumour bearing mice at 0 h. […] After 24 h, mice were euthanized and the Cy7 signal distribution in major organs and mice body was observed. Cy7 signal was detected in the spleen, kidney and bladder.
Next, determination as to whether AMD can be used to break down the SiTE in vivo was sought. Cy7 was modified to the CD3 Fab and the Fab assembled with HER2 Fab to formulate SiTE-Cy7. SiTE-Cy7 was i.v. injected to E0771-HER2 tumour-bearing mice at 0 h. […] Mice were euthanized 6 h later and the Cy7 signal in different organs and tumour was measured using an in vivo imaging system (IVIS). […] Most supramolecular chemistry-based strategies for controllable chemotherapeutic release have only been tested in in vitro studies, and only a few in vivo controllable drug release strategies have been reported in this space. […]

The nature of series [2]: Half-life, distribution and clearance of AMD in mice. It counts as in vivo. To be noted: mouse; for half-life: blood, intravenous.
For series [3], the system named is E0771-HER2 tumour. As to the kind of experiment: E0771-HER2 tumour growth inhibition in C57/BL6 mice. It counts as in vivo, mouse. To be noted: following AMD infusion after SiTE. From the text: FIG. 20A: 106 E0771-HER2 cells were s.c. injected into the right flank of C57/BL6 mice. […] All mice were euthanized at day 23. FIG. 20B: images of mice from all treatment groups on day 23. FIG. 20C: tumour growth curves for different groups. Tumour tissue was isolated on Day 23 and observed for immune cell infiltration. FIG. 20D: repeat of the tumour growth inhibition experiment. FIG. 20E: mouse body weight change during the tumour inhibition experiment. FIG. 20F: percentages of CD45+, CD45+CD3+, CD45+CD3+CD4+/CD8+ cells in the tumour tissues. FIG. 20G: immunofluorescence images of the tumour tissues in different groups with cell nuclei labeled with DAPI (blue) and T cells labeled with anti-CD3 antibody (green). Scale bar: 100 μm.
Tumour size and mouse weight were monitored.
Minimal changes in mouse weight were observed across the different groups (FIG. 20E), likely because HER2 antigen is not expressed on normal mouse cells, preventing toxicity from on-target, off-tumour activity. At day 23, all mice were euthanized and tumour tissue was collected to determine total lymphocyte and CD3^+ T cell infiltration using flow cytometry and immunofluorescence imaging.
Additionally, to confirm that this impact on the tumour tissue was HER2 specific, SiTE activity was evaluated in a HER2 negative E0771 tumour model (FIGS. 24A-24J).

Series [4] concerns Raji-Luc-GFP tumour cells. As to the kind of experiment: Cytokine release syndrome in humanized NSG-SGM3 mice with Raji-Luc-GFP tumour. It counts as in vivo, mouse. To be noted: 10 mg/kg AMD i.v., 24 h post-AMD. The procedure: An in vivo imaging system (IVIS) was used to monitor tumour burden in vivo. […] FIGS. 41C-41E: Mouse body weight, temperature and survival curves, respectively. n=10 mice. […] The data in FIGS. 41C-41D and FIGS. 41F-41J were plotted as mean±s.d. (n=10) from three independent experiments. […] P value in FIG. 41E was determined using Log-rank (Mantel-Cox) test.
SiTE and Blinatumomab were also compared with regard to treating symptoms of CRS and neurotoxicity. The humanized mouse model was constructed as before, but this time the piggybac transposon system was not used to express CD19 in the mouse livers. This allowed better analysis of the effects of the SiTE on CRS and neurotoxicity (FIG. 41A). Raji-Luc-GFP cells were i.v. injected at day −14. Blinatumomab, SiTE or PBS were i.v. injected to the mice at day one. Mouse tumour burden, body weight, temperature, and plasma cytokine levels were monitored (FIGS. 41B-41J).

For series [5], the system named is Raji-Luc-GFP tumour cells. Particulars: AMD treatment group after SiTE. The method, then: FIG. 42A: NSG-SGM3 mice were treated with Busulfan at day −50 to remove mouse bone marrow. At day −49, 10^5 human CD34^+ fetal liver cells were i.v. injected to let the mouse develop a human immune system. 10^6 Raji-Luc-GFP tumour cells were i.v. injected at day −14. At days 1, 3, and 5, PBS or SiTE was i.v. injected (in the PBS group, only PBS was injected to tumour-bearing mice). […] FIGS. 42B-42E: mouse body weight, temperature, IL-6 levels, and mouse survival curves, respectively. n=10 mice. The red stars in FIG. 42B indicate that mice were euthanized. FIG. 42F: measurements of IL-1 in mouse blood at different time points. n=10 mice. […] Brain H&E staining (FIG. 42I) and human CD68 immunohistochemistry (FIG. 42J) images of mice at day 35. The data in FIGS. 42B-42F were plotted as mean z s.d. (n=10) from three independent experiments.
It was also evaluated if the SiTE can help control neurotoxicity. In the clinic, neurotoxicity is usually delayed and occurs several […] after CRS onset. Tumour-bearing mice were treated with SiTE at days 1, 3 and 5 (FIG. 42A). […] Rather than use a preventative strategy for treating CRS (FIGS. 40A-40M), here Tocilizumab was used to treat CRS when symptoms presented, so that it can be compared directly with the SiTE strategy. […] Studies have shown that IL-1 is the major cause of neurotoxicity.

Series [6] has as its system Raji-Luc-GFP tumour cells. As to the kind of experiment: Humanized immune system mice with liver CD19 and Raji-Luc-GFP tumour. To be noted: AMD i.v. at day 7 after SiTE.
Where [7] appears, read: AMD dispersed in 5% polyoxyethylene castor oil.

With `NC12CC3CC(CC(C3)C1)C2` [AMD, adamantan-1-amine], in the series with E0771-HER2 tumour [1] (setting [7]), the “Cy7 signal decrease compared to PBS treatment” value is recorded as “over 78%”. Besides, the “decrease in Cy7 signal in the tumour” value in the series on E0771-HER2 tumour [1] (AMD dispersed in PBS) is reported as ~46%. In addition, the half-life in series [2] (setting [7]) was ~24 h; in series [2] (AMD dispersed in PBS), ~9 h. Further, in series [2] (in vivo), the clearance result is reported as “cleared from the urine”. Also, the “number of T cells in the tumour tissue” value in the series on E0771-HER2 tumour [3] was “greatly decreased”. Further, the “increased cytokine levels after AMD” value in series [4] is reported as “gradually recovered to within normal ranges”. Also, the animal survival result in series [5] was “prolonged animal survival”. Moreover, the “liver enzyme and cytokine levels in blood” value in series [6] was “greatly decrease the liver enzyme levels and cytokine levels in blood”.

For the origin of these results see patent publication US20260216328A1, “DISRUPTABLE LINKER COMPOSITIONS, SWITCHABLE BISPECIFIC T CELL NANOENGAGER (SWITCH-BITE) COMPOSITIONS COMPRISING THE SAME, AND METHODS OF USE THEREOF” (The Trustees of the University of Pennsylvania, priority 2023, published 2026).
